Data: US5753709A, “N-acyl-2 aryl cyclopropylmethylamine derivatives as melatonergics” (Bristol-Myers Squibb Company, priority 1996, dated 1998)
pIC50: −log10 of the molar value. Like-named read-outs stand apart in the source and are kept apart here.

Molecular target: T1, human melatonin receptor (human ML1A) (Homo sapiens, UniProt P48039)
T1 construct: expressed in transfected cells; host or cells: COS-1 cells (transient, pcDNAI, DEAE-dextran); membrane homogenates
Assay: Melatonergic binding: displacement of 2-[125I]-iodomelatonin at the human melatonin receptor (human ML1A in COS-1 membranes)
Conditions: displacement of 2[125I]-Iodomelatonin (100 pM), 37° C., 1 hour
Procedure: The melatonergic binding of the compounds of Formula I was determined by a modification of the method of Reppert, S. M. et al. (Neuron, Volume 13, pages 1177-1185, 1994). […] The reagents, membranes, and other parameters used in the assay are described below:
(a) 50 mM Tris buffer containing 12.5 mM MgCl2, and 2 mM EDTA (pH 7.4 at 37° C.).
(b) Wash buffer: 20 mM Tris base containing 2 mM MgCl2 (pH 7.4 at room temperature).
(c) 6-Chloromelatonin (10^-5 M final concentration).
(d) 2-[^125 I]-Iodomelatonin (100 pM final concentration). (Source: NEN) Membrane preparation: The cDNA (human ML1A) in pcDNAI was introduced into COS-1 cells by the DEAE-dextran method. Three days later, after media removal, the plates were washed with buffered saline; the cells removed using Hank's balanced salt solution and pelleted. The supernant was discarded and the pellets frozen. For membrane homogenates, the pellets were thawed and resuspended in TME buffer, Tris base, MgCl2, EDTA (pH 7.4 at 37° C.), and supplemented with aprotinin, leupeptin, and phenylmethylsulfonyl fluoride. The cells were homogenized and centrifuged; the resulting pellet resuspended in TME and frozen. At assay, the small aliquot was thawed on ice and resuspended in TME buffer. Incubation: 37° C. for 1 hour. Reaction is terminated by filtration.

T1 sequence (P48039 whole entry): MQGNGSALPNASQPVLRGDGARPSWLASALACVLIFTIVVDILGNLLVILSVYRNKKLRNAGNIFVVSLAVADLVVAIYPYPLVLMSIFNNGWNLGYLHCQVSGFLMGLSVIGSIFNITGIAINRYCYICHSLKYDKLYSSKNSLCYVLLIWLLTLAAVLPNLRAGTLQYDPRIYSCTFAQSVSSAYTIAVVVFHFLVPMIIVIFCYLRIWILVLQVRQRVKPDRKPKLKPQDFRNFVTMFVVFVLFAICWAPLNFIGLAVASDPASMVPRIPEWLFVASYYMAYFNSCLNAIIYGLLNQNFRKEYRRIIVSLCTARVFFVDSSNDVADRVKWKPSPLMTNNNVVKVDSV

SMILES	pIC50 (Table 5)	other results
CCCC(=O)NC[C@@H]1C[C@H]1c1ccccc1 (single isomer, unassigned) [Example 90, (-)-(trans)-N-[(2-Phenylcycloprop-1-yl)methyl] butanamide]	6.60 to 7.40	–
CCCC(=O)NC[C@@H]1C[C@H]1c1cccc(OCCC=C(C)C)c1 (relative stereo) [Example 106, (trans)-N-[[2-[3-(4-Methyl-3-penten-1-yloxy)phenyl]cycloprop-1-yl]methyl] butanamide]	7.40 to 8.30	–
CCCC(=O)NC[C@@H]1C[C@H]1c1cccc(OCC(C)C)c1 (relative stereo) [Example 61]	6.22 to 6.60	–
CCCCCCCCCCCCCCCCOc1cccc([C@@H]2C[C@H]2CNC(=O)CCC)c1 (relative stereo) [Example 59]	6.22 to 6.60	–
CCCCC(=O)NC[C@@H]1C[C@H]1c1cccc(OC)c1 (relative stereo) [Example 25]	–	pIC50 (Table 4): 6.60 to 7.40
CCCC(=O)NC[C@@H]1C[C@H]1c1cccc(OCCc2cccc(F)c2)c1 (relative stereo) [Example 125, (trans)-N-[[2-[3-[2-(3-Fluorophenyl)ethoxy]phenyl]cycloprop-1-yl]methyl] butanamide]	7.40 to 8.30	–
CCCC(=O)NC[C@@H]1C[C@H]1c1cccc(OCCCn2cccc2)c1 (relative stereo) [Example 98]	7.40 to 8.30	–
CCCC(=O)NC[C@@H]1C[C@H]1c1cccc(OCCCCC(C)C)c1 (relative stereo) [Example 100, (trans)-N-[[2-[3-(5-Methylhexyloxy)phenyl]cycloprop-1-yl]methyl] butanamide]	7.40 to 8.30	–
CCCC(=O)NC[C@@H]1C[C@H]1c1cccc(OCCc2ccccc2)c1 (relative stereo) [Example 60, (trans)-N-[[2-[3-[(2-Phenylethyl)oxy]phenyl]cyclopropyl]methyl] butanamide]	7.40 to 8.30	–
CCCC(=O)NC[C@@H]1C[C@H]1c1cccc(OCCCc2ccncc2)c1 (relative stereo) [Example 63]	6.60 to 7.40	–
C=CCOc1cccc([C@@H]2C[C@H]2CNC(=O)CCC)c1 (relative stereo) [Example 7b, (trans)-N-[[2-[3-(2-Propenyloxy)phenyl]cyclopropyl]methyl] butanamide]	7.40 to 8.30	–
CCCC(=O)NC[C@@H]1C[C@H]1c1cccc(OCCCC(=O)OC)c1 (relative stereo) [Example 108]	6.60 to 7.40	–
CCCC(=O)NC[C@@H]1C[C@H]1c1cccc(OCC=C(C)CCC=C(C)CCC=C(C)C)c1 (relative stereo) [Example 103, (trans)-N-[[2-[3-[(3-,7,11-Trimethyldodeca-2,6,10-trien-1-yl)oxy]phenyl]cycloprop-1-yl]methyl] butanamide]	> 8.30	–
CCCC(=O)NC[C@@H]1C[C@H]1c1cccc(OCCCC#Cc2ccccc2)c1 (relative stereo) [Example 47]	6.22 to 6.60	–
CCCC(=O)NC[C@@H]1C[C@H]1c1cccc(OCCCOc2ccccc2)c1 (relative stereo) [Example 96, (trans)-N-[[2-[3[(3-Phenoxyprop-1-yl)oxy]phenyl]cycloprop-1-yl]methyl] butanamide]	7.40 to 8.30	–
CCCC(=O)NC[C@@H]1C[C@H]1c1cccc(OCCCCCCCc2ccccc2)c1 (relative stereo) [Example 46, (trans)-N-[[2-[3-[(7-Phenylheptyl)oxy]phenyl]cyclopropyl]methyl] butanamide]	7.40 to 8.30	–
CCCC(=O)NC[C@@H]1C[C@H]1c1cccc(CC)c1 (relative stereo) [Example 114, (trans)-N-[2-[(3-Ethylphenyl)cycloprop-1-yl]methyl] butanamide]	7.40 to 8.30	–
CCCC(=O)NC[C@@H]1C[C@H]1c1cccc(OCCc2ccccc2F)c1 (relative stereo) [Example 128, (trans)-N-[[2-[3-[2-(2-Fluorophenyl)ethoxy]phenyl]cycloprop-1-yl]methyl] butanamide]	7.40 to 8.30	–
CCCC(=O)NC[C@@H]1C[C@H]1c1cccc(Cl)c1 (relative stereo) [Example 80, (trans)-N-[[2-(3-Chlorophenyl)cycloprop-1-yl]methyl] butanamide]	7.40 to 8.30	–
CCCC(=O)NC[C@@H]1C[C@H]1c1cccc(O)c1 (relative stereo) [Example 7a, (trans)-N-[[2-(3-Hydroxyphenyl)cyclopropyl]methyl] butanamide]	6.22 to 6.60	–
CCCC(=O)NC[C@@H]1C[C@H]1c1cccc(OCCC(C)CC(C)(C)C)c1 (relative stereo) [Example 121]	7.40 to 8.30	–

SMILES	pIC50 (Table 5)	other results
CCCC(=O)NC[C@@H]1C[C@H]1c1cccc(OCCCc2ccccc2)c1 (relative stereo) [Example 95, (trans)-N-[[2-[3[(3-Phenylprop-1-yl)oxy]phenyl]cycloprop-1-yl]methyl] butanamide]	7.40 to 8.30	–
CCCC(=O)NC[C@@H]1C[C@H]1c1cccc(OCCCF)c1 (relative stereo) [Example 94]	6.60 to 7.40	–
[2H]C([2H])([2H])Oc1cccc([C@@H]2C[C@H]2CNC(=O)CCC)c1 (relative stereo) [Example 111, (trans)-N-[2-[(3-Trideuteromethoxyphenyl)cycloprop-1-yl]methyl] butanamide]	–	pIC50 (read-out: Binding affinity (IC50) at the human melatonin receptor, Table 5): > 8.30
CCCCCCCOc1cccc([C@@H]2C[C@H]2CNC(=O)CCC)c1 (relative stereo) [Example 53, (trans)-N-[[2-[3-(Heptyloxy)phenyl]cyclopropyl]methyl] butanamide]	6.60 to 7.40	–
CCCC(=O)NC[C@@H]1C[C@H]1c1cccc(OCCCCCCc2ccccc2)c1 (relative stereo) [Example 45]	6.60 to 7.40	–
CCCC(=O)NC[C@@H]1C[C@H]1c1cccc(C)c1 (relative stereo) [Example 75, (trans)-N-[[2-(3-Methylphenyl)cycloprop-1-yl]methyl] butanamide]	7.40 to 8.30	–
CCCCCCCCCCOc1cccc([C@@H]2C[C@H]2CNC(=O)CCC)c1 (relative stereo) [Example 56, (trans)-N-[[2-[(3-Decyloxy)phenyl]cyclopropyl]methyl] butanamide]	7.40 to 8.30	–
CCCC(=O)NCC[C@@H]1C[C@H]1c1cccc(OC)c1 (single isomer, unassigned) [Example 16, (-)-(trans)-N-[[2-(3-Methoxyphenyl)cyclopropyl]ethyl]butanamide]	–	pIC50 (Table 6): 6.22 to 6.60
CCCC(=O)N(Cc1ccccc1)C[C@@H]1C[C@H]1c1cccc(OC)c1 (relative stereo) [Example 6, (trans)-N-[[2-(3-Methoxyphenyl)cyclopropyl]methyl]-N-(phenylmethyl) butanamide]	–	pIC50 (Table 4): 6.60 to 7.40
CCCC(=O)NC[C@@H]1C[C@H]1c1cccc(OCCCc2cccc(OC)c2)c1 (relative stereo) [Example 62, (trans)-N-[[2-[3-[3-(3-Methoxyphenyl)propoxy]phenyl]cyclopropyl]methyl] butanamide]	7.40 to 8.30	–
CCCC(=O)NC[C@@H]1C[C@H]1c1cc(OC)ccc1I (relative stereo) [Example 4, (trans)-N-[[2-(2-Iodo-5-methoxyphenyl)cyclopropyl]methyl]butanamide]	–	pIC50 (Table 4): > 8.30
CCCC(=O)NC[C@@H]1C[C@H]1c1cccc(OCCCCC2CCCCC2)c1 (relative stereo) [Example 116]	7.40 to 8.30	–
CCCC(=O)NC[C@@H]1C[C@H]1c1cccc(Br)c1 (relative stereo) [Example 73, (trans)-N-[[2-(3-Bromophenyl)cycloprop-1-yl]methyl] butanamide]	7.40 to 8.30	–
CCCC(=O)NC[C@@H]1C[C@H]1c1cccc(OCC=C(C)CCC=C(C)C)c1 (relative stereo) [Example 99, (trans)-N-[[2-[3[(3-Dimethylocta-2,6-dien-1-yl)oxy]phenyl]cycloprop-1-yl]methyl] butanamide]	7.40 to 8.30	–
CCCC(=O)NC[C@@H]1C[C@H]1c1cccc(OCCCc2ccc(OC)cc2)c1 (relative stereo) [Example 127, (trans)-N-[[2-[3-[3-(4-Methoxyphenyl)propoxy]phenyl]cycloprop-1-yl]methyl]butanamide]	7.40 to 8.30	–
COCC(=O)NC[C@@H]1C[C@H]1c1cccc(OC)c1 (relative stereo) [Example 20, (trans)-N-[[2-(3-Methoxyphenyl)cyclopropyl]methyl]-2-methoxyacetamide]	–	pIC50 (Table 4): 7.40 to 8.30
CC(=O)NC[C@@H]1C[C@H]1c1cccc(C)c1 (relative stereo) [Example 78, (trans)-N-[[2-(3-Methylphenyl)cycloprop-1-yl]methyl] acetamide]	6.60 to 7.40	–
CCCC(=O)NC[C@@H]1C[C@H]1c1cccc(OCCO)c1 (relative stereo) [Example 15]	6.60 to 7.40	–
CCCC(=O)NC[C@@H]1C[C@H]1c1cc(F)ccc1F (relative stereo) [Example 87, (trans)-N-[[2-(2,5-Difluorophenyl)cycloprop-1-yl]methyl] butanamide]	6.60 to 7.40	–
CCCC(=O)NC[C@@H]1C[C@H]1c1cccc(OCCc2cccc(C(F)(F)F)c2)c1 (relative stereo) [Example 123, (trans)-N-[[2-[3-[2-[3-(Trifluoromethyl)phenyl]ethoxy]phenyl]cycloprop-1-yl]methyl] butanamide]	> 8.30	–
